US20230017786A1, “DEXTR[…] A DISEASE-MODIFYING TREATMENT FOR NEUROPSYCHIATRIC DISORDERS AND DISEASES” (priority 2020, published 2023)
“And” between values parts separate entries of the source, which are not always exact repeats. Equal entries are not always repeated. Structures can show the parent of a compound that is named as a salt.

Columns and labels:
[1] = molecular target: T1, human NMDA receptor GluN1-GluN2A (Homo sapiens, UniProt Q05586+Q12879); assay: FLIPR calcium assay, test item effect on L-glutamate CRC, GluN1-GluN2A-CHO; format: cell-based
T1 construct: expressed in transfected cells; host or cells: CHO
Description: (§1) FLIPR determination of intracellular calcium level was used as a read-out for NMDAR activation.
(§2) 400× compound plate was stored at −20° C. until FLIPR experimental day.
(§3) 4× compound plate was generated from 400× compound plate by addition of up to 30 μl/well of compound buffer on FLIPR experimental day.
(§4) A FLIPR system was used to monitor intracellular calcium level in NMDAR cell lines, pre-loaded for 1 hour with Fluo-4, and then washed with assay buffer.
(§5) Y=Bottom+(Top−Bottom)/(1+10^((LogEC50−Log[A])*HillSlope))

[2] = molecular target: T2, human NMDA receptor GluN1-GluN2B (Homo sapiens, UniProt Q05586+Q13224); assay: cell-based; format: cell-based
T2 construct: expressed in transfected cells; host or cells: CHO
Description: as §1, §2, §3, §4, §5

[3] = molecular target: T3, human NMDA receptor GluN1-GluN2C (Homo sapiens, UniProt Q05586+Q14957); assay: FLIPR calcium assay, test item effect on L-glutamate CRC, GluN1-GluN2C-CHO; format: cell-based
T3 construct: expressed in transfected cells; host or cells: CHO
Description: as §1, §2, §3, §4, §5

[4] = molecular target: T4, human NMDA receptor GluN1-GluN2D (Homo sapiens, UniProt O15399+Q05586); assay: FLIPR calcium assay, test item effect on L-glutamate CRC, GluN1-GluN2D-CHO; format: cell-based
T4 construct: expressed in transfected cells; host or cells: CHO
Description: as §1, §2, §3, §4, §5

[5] = tested on: diheteromeric human recombinant NMDAR containing GluN1 plus GluN2A, GluN2B, GluN2C or GluN2D; assay: FLIPR calcium assay, statements for all four NMDAR subtypes together; format: cell-based; settings: 6 test item concentrations
Text: An operational equation for allosteric modulators (Leach K, Sexton P M and Christopoulos A, Allosteric GPCR modulators: taking advantage of permissive receptor pharmacology, Trends Pharmacol. Sci. 28: 382-389, 2007; Kenakin T P, Overview of receptor interaction of agonists and antagonists, Curr. Protoc. Pharmacol. Chapter 4: Unit 4.1, 2008, Kenakin T P, Biased signalling and allosteric machines: new vistas and challenges for drug discovery, Br. J. Pharmacol. 165: 1659-1669, 2012) was created in Prism 8 (GraphPad) software to estimate KB and a parameters for every test item, with the assumption that, as a pore blocker, every test item would be able to produce a compete blockade of agonist response, at sufficiently high concentration: […]

[6] = tested on: NMDA receptors of cultured rat cortical neurons; settings: Mealing et al., 1999; cited from earlier work
[7] = molecular target: T5, human GluN1-GluN2C NMDA receptor (Homo sapiens, UniProt Q05586+Q14957); assay: Manual patch clamp trapping assay, hGluN1/hGluN2C-CHO cells; settings: test item 1 μM, hydrochloride
Description: Manual patch clamp recordings occurred at −70 mV.
hGluN1/hGluN2C-CHO cells grown on poly-D-lysine coated glass coverslips were studied by manual patch clamp whole cell recording.
(§6) Recordings occurred at −70 mV fixed voltage equal to holding potential.

[8] = molecular target: T5, human GluN1-GluN2C NMDA receptor; assay: Manual patch clamp on-/off-rate assay, hGluN1/hGluN2C-CHO cells; settings: for % Current (mean ± SEM): 10/10 μM L-glutamate/glycine induced current, hGluN1/hGluN2C-CHO; for Tau-off: continuous 10/10 μM L-glutamate/glycine; for I2 (% current): current after 50 seconds removal of test item; for Tau-on: 10/10 μM L-glutamate/glycine; for % block of 10/10 μM L-glutamate/glycine induced current: −70 mV, no Mg2+
Description: Manual patch clamp recordings occurred at −70 mV. […] Tau-on and tau-off were estimated by curve fitting to first order exponential equations.
Test items were evaluated using a manual patch clamp whole-cell recording methodology, using HEKA Elektronik Patchmaster system, coupled to BioLogic RSC-160 perfusion device (BioLogic, Seyssinet-Pariset, France).
hGluN1/hGluN2C-CHO cells grown on poly-D-lysine coated glass coverslips were studied by manual patch clamp whole cell recording. Extracellular and intracellular solutions for patch clamp recording had following composition:
as §6
Test item on-/off-rates were measured by curve fitting the development of their induced current block, or relief from it.
At least n=10 independent cells were analysed. […] Time constant of onset (tau-on, seconds) and offset (tau-off, seconds) of test item inhibition of glutamate induced current were calculated using first order exponential equations as shown below:
I(t)=I1+(I2−I1)×(1−e^−t/τoff)

[9] = highest affinity for a NMDAR subtype = 100%
[10] = operational analysis for allosteric modulators
[11] = 10 μM test item, offset fitting

T5 sequence (Q14957 20-1233, other chains not shown): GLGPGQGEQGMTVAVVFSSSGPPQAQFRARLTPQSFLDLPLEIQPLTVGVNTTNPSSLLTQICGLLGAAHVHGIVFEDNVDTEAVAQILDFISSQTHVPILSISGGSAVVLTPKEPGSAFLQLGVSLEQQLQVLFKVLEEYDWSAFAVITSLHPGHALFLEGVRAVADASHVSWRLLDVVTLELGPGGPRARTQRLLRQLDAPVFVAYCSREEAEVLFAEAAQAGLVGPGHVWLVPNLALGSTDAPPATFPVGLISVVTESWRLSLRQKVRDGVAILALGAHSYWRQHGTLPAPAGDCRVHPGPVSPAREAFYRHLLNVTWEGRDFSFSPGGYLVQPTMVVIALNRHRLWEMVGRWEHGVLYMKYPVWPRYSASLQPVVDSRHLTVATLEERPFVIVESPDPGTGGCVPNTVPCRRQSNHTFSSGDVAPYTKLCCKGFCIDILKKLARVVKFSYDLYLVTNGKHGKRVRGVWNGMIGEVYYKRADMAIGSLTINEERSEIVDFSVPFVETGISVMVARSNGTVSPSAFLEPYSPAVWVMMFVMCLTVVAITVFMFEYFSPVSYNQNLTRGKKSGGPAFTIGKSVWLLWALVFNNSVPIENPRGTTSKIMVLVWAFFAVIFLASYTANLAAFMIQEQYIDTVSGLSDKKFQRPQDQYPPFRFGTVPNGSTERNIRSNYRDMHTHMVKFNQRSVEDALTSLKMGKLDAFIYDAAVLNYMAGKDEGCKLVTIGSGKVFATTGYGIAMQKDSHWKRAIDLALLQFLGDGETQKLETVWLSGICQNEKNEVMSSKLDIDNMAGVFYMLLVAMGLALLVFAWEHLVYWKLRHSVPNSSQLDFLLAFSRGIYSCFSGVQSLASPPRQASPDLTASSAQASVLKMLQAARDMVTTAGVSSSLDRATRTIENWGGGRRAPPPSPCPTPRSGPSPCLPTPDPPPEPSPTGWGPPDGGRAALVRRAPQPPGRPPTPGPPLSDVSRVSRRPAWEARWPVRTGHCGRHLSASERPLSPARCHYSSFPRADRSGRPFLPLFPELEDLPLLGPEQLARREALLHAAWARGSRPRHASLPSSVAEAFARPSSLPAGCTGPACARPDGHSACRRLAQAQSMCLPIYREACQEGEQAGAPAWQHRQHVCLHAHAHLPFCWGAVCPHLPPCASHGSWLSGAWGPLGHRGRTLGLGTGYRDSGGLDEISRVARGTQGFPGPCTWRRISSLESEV
T3 sequence (Q14957 20-1233, other chains not shown): as above
T4 sequence (O15399 28-1336, other chains not shown): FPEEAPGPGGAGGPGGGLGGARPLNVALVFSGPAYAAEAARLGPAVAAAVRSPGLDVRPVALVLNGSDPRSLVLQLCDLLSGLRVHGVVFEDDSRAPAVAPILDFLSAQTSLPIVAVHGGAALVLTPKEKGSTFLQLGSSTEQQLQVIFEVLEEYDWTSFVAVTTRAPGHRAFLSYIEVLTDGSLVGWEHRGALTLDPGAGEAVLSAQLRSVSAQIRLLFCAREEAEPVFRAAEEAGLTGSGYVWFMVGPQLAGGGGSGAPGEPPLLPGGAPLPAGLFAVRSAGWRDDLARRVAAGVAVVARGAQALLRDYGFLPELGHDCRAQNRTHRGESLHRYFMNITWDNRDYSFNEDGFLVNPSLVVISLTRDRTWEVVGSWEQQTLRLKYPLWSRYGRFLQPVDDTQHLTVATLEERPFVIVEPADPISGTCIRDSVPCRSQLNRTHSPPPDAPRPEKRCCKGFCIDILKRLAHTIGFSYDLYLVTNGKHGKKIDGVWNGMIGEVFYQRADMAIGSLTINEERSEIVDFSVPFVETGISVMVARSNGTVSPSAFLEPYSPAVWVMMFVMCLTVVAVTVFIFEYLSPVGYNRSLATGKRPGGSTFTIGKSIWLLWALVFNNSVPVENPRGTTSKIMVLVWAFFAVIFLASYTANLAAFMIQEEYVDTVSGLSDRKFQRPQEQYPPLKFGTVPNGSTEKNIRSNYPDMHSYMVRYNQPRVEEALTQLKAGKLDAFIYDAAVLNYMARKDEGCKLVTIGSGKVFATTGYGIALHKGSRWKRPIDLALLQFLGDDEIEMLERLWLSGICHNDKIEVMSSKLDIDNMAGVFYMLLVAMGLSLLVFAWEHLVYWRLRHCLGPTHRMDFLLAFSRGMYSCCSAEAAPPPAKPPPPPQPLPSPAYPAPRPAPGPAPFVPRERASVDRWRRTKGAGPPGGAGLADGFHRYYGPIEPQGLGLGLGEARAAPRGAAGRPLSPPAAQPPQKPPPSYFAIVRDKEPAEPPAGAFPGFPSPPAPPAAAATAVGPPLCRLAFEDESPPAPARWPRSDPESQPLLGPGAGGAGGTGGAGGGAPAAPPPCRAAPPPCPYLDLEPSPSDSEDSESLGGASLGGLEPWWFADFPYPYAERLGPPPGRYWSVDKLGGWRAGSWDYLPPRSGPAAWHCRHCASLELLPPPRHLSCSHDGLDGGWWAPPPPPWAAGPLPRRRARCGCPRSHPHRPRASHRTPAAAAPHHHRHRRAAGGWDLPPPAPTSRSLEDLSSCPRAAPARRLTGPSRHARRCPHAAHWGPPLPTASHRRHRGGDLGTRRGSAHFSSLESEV
T2 sequence (Q13224 27-1484, other chains not shown): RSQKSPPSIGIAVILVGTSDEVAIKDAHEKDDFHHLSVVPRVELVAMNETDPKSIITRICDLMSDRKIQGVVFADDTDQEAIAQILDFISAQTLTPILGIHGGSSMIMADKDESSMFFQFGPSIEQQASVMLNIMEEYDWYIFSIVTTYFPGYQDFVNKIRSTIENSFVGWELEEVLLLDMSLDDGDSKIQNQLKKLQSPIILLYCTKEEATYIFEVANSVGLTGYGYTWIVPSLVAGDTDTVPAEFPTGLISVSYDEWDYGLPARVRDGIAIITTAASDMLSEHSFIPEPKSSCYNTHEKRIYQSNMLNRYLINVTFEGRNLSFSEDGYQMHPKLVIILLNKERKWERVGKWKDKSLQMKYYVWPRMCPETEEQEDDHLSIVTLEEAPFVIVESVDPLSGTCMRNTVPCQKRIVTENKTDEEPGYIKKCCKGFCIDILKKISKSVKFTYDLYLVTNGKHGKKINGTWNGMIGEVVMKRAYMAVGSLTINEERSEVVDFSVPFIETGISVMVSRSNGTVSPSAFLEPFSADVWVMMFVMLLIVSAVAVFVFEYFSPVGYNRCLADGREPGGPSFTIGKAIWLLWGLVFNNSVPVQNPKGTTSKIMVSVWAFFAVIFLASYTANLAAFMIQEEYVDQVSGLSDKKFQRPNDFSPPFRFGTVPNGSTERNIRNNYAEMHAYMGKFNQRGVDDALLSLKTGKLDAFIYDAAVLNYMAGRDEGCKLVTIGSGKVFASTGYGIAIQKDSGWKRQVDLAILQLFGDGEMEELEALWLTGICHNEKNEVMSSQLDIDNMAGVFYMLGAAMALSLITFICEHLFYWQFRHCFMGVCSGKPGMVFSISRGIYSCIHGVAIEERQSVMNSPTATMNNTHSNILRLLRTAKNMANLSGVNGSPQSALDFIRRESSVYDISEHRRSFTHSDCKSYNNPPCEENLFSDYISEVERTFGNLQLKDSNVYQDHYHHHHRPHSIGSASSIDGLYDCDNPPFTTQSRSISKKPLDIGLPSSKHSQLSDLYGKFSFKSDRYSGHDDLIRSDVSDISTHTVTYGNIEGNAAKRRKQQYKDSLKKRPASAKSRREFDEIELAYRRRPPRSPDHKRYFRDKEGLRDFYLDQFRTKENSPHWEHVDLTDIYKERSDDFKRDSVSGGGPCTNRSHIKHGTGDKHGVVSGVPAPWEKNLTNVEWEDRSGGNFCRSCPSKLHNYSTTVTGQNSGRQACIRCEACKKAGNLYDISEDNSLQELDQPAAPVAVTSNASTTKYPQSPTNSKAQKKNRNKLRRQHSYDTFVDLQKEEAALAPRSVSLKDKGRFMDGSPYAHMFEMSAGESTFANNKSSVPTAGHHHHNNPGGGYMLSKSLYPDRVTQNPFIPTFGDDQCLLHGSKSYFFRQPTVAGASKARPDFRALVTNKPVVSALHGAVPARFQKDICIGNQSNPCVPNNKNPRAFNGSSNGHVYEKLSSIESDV

For `CNC1(c2ccccc2Cl)CCCCC1=O` (racemic) [(±)-Ketamine, (±)-ketamine hydrochloride], the Kb [1] was 4300 nM, the “% affinity ratio” value [1, 9] was 11% and the “α, estimated cooperativity term” value [1, 10] was 0.17. The “L-glutamate CRC HillSlope” value ([1]; with test item 49 nM) was 1.2, the “L-glutamate CRC LogEC50” value ([1]; with test item 49 nM) was −6.5 and the “L-glutamate CRC HillSlope” value ([1]; with test item 195 nM) was 1.2. For the same compound, the “L-glutamate CRC LogEC50” value ([1]; with test item 195 nM) was −6.5, the “L-glutamate CRC HillSlope” value ([1]; with test item 781 nM) was 1.0 and the “L-glutamate CRC LogEC50” value ([1]; with test item 781 nM) was −6.4. The “L-glutamate CRC HillSlope” value ([1]; with test item 3.1 μM) was 1.1, the “L-glutamate CRC LogEC50” value ([1]; with test item 3.1 μM) was −6.4 and the “L-glutamate CRC HillSlope” value ([1]; with test item 12.5 μM) was 1.3. The “L-glutamate CRC LogEC50” value ([1]; with test item 12.5 μM) was −6.4, the “L-glutamate CRC HillSlope” value ([1]; with test item 50 μM) was 1.9 and the “L-glutamate CRC LogEC50” value ([1]; with test item 50 μM) was −6.2. For the same compound, the “% affinity ratio” value [2] was 42%, the Kb [2] was 1100 nM and the “α, estimated cooperativity term” value [2] was 0.14. The “L-glutamate CRC HillSlope” value ([2]; hydrochloride) was 2.0 and 1.4 and 1.1 and 1.2, the Kb [3] was 460 nM and the “potency with respect to dextromethadone” value ([3]; from the FLIPR study (Example 1)) was roughly 10 fold. The “% affinity ratio” value [3, 9] was 100%, the “α, estimated cooperativity term” value [3, 10] was 0.13 and the “L-glutamate CRC HillSlope” value ([3]; with test item 49 nM) was 1.5. For the same compound, the “L-glutamate CRC LogEC50” value ([3]; with test item 49 nM) was −6.9, the “L-glutamate CRC HillSlope” value ([3]; with test item 195 nM) was 1.5 and the “L-glutamate CRC LogEC50” value ([3]; with test item 195 nM) was −6.8. The “L-glutamate CRC HillSlope” value ([3]; with test item 781 nM) was 1.3, the “L-glutamate CRC LogEC50” value ([3]; with test item 781 nM) was −6.6 and the “L-glutamate CRC HillSlope” value ([3]; with test item 3.1 μM) was 1.2. For the same compound, the “L-glutamate CRC LogEC50” value ([3]; with test item 3.1 μM) was −6.6, the “L-glutamate CRC HillSlope” value ([3]; with test item 12.5 μM) was 2.0 and the “L-glutamate CRC LogEC50” value ([3]; with test item 12.5 μM) was −6.7. The “L-glutamate CRC HillSlope” value ([3]; with test item 50 μM) was 2.5, the “L-glutamate CRC LogEC50” value ([3]; with test item 50 μM) was −6.4 and the Kb [4] was 1400 nM. The “% affinity ratio” value [4, 9] was 33%, the “α, estimated cooperativity term” value [4, 10] was 0.15 and the “L-glutamate CRC HillSlope” value ([4]; with test item 49 nM) was 1.6. For the same compound, the “L-glutamate CRC LogEC50” value ([4]; with test item 49 nM) was −7.4, the “L-glutamate CRC HillSlope” value ([4]; with test item 195 nM) was 1.5 and the “L-glutamate CRC LogEC50” value ([4]; with test item 195 nM) was −7.3. For the same compound, the “L-glutamate CRC HillSlope” value ([4]; with test item 781 nM) was 1.4, the “L-glutamate CRC LogEC50” value ([4]; with test item 781 nM) was −7.2 and the “L-glutamate CRC HillSlope” value ([4]; with test item 3.1 μM) was 1.8. The “L-glutamate CRC LogEC50” value ([4]; with test item 3.1 μM) was −7.1, the “L-glutamate CRC HillSlope” value ([4]; with test item 12.5 μM) was 1.6 and the “L-glutamate CRC LogEC50” value ([4]; with test item 12.5 μM) was −6.9. The “L-glutamate CRC HillSlope” value ([4]; with test item 50 μM) was 2.0, the “L-glutamate CRC LogEC50” value ([4]; with test item 50 μM) was −6.7 and the “profile on L-glutamate CRC” value [5] was “insurmountable profile”. The trapping [6] was 86.0%, the “Block trapped (BT), trapping” value [7] was 86.7% and the “Block (B) of 10/10 μM L-glutamate/glycine-evoked currents” value ([7]; listed as (±)-ketamine) was 74.0%±1.2% and 74.0%. For the same compound, the “Block trapped (BT), trapping” value ([7]; listed as (±)-ketamine) was 86.7%±1.8% and 86.7%, the “Residual block (BR)” value ([7]; listed as (±)-ketamine) was 64.1%±1.3% and 64.1% and the “% Current (mean ± SEM)” value ([8]; 0.3 μM test item) was 44.2 ± 3.0%. The “% Current (mean ± SEM)” value ([8]; 1 μM test item) was 74.6 ± 2.2%, the “I1 (% current)” value ([8]; 1 μM test item, offset fitting) was 28.5 % current and the Tau-off ([8]; 1 μM test item, offset fitting) was 151.0 s. The “I2 (% current)” value ([8]; 1 μM test item, offset fitting) was 95.5 % current, the Tau-on ([8]; 1 μM test item, onset fitting) was 47.1 s and the “I1 (% current)” value ([8]; 1 μM test item, onset fitting, current after 30 seconds application of test item) was 28.7 % current. For the same compound, the “% Current (mean ± SEM)” value ([8]; 3 μM test item) was 89.7 ± 0.6%, the “I1 (% current)” value [8, 11] was 4.9 % current and the Tau-off [8, 11] was 163.2 s. For the same compound, the “I2 (% current)” value [8, 11] was 102.9 % current, the Tau-on ([8]; 10 μM test item, onset fitting) was 9.9 s and the “I1 (% current)” value ([8]; 10 μM test item, onset fitting, current after 30 seconds application of test item) was 3.6 % current. For the same compound, the “% block of 10/10 μM L-glutamate/glycine induced current” value ([8]; test item 0.3 μM, hydrochloride) was 44% and 44.2%±3.0% and 44.2%, the “tau-off, mean of single trace fittings” value ([8]; test item 1 μM) was 151.7 ± 6.3 s and the tau-on ([8]; test item 1 μM) was 47.1 s. The “tau-on, average of single trace fittings” value ([8]; test item 1 μM) was 47.3 ± 1.4 s, the tau-off ([8]; test item 1 μM, hydrochloride) was 151 s and the tau-off ([8]; test item 1 μM, listed as (±)-ketamine, hydrochloride) was 151.0 s. The “% block of 10/10 μM L-glutamate/glycine induced current” value ([8]; test item 1 μM, hydrochloride) was 74.6%±2.2% and 75% and 74.6%, the “% block of 10/10 μM L-glutamate/glycine induced current” value ([8]; test item 3 μM, hydrochloride) was 90% and 89.7%±0.6% and 89.7% and the tau-off ([8]; test item 10 μM) was 163.2 s. The tau-on ([8]; test item 10 μM) was 9.9 s and the “% block of 10/10 μM L-glutamate/glycine induced current” value ([8]; test item 10 μM, hydrochloride) was 97.2%±0.3% and 97% and 97.2%.
